Laboratory results published in patent US20150197497A1, “SELECTIVE INHIBITORS OF HISTONE DEACETYLASE ISOFORM 6 AND METHODS THEREOF” (DANA-FARBER CANCER INSTITUTE, INC., priority 2011, published 2015).

Legend:
HDAC7 = target: T1, HDAC7 (Homo sapiens, UniProt Q8WUI4); assay: In vitro HDAC enzyme inhibition assay, HDAC7; type: biochemical
T1 construct: Recombinant, full-length HDAC protein (BPS Biosciences) was incubated with fluorophore conjugated substrate; purchased BPS Biosciences
T1 sequence (Q8WUI4 1-952): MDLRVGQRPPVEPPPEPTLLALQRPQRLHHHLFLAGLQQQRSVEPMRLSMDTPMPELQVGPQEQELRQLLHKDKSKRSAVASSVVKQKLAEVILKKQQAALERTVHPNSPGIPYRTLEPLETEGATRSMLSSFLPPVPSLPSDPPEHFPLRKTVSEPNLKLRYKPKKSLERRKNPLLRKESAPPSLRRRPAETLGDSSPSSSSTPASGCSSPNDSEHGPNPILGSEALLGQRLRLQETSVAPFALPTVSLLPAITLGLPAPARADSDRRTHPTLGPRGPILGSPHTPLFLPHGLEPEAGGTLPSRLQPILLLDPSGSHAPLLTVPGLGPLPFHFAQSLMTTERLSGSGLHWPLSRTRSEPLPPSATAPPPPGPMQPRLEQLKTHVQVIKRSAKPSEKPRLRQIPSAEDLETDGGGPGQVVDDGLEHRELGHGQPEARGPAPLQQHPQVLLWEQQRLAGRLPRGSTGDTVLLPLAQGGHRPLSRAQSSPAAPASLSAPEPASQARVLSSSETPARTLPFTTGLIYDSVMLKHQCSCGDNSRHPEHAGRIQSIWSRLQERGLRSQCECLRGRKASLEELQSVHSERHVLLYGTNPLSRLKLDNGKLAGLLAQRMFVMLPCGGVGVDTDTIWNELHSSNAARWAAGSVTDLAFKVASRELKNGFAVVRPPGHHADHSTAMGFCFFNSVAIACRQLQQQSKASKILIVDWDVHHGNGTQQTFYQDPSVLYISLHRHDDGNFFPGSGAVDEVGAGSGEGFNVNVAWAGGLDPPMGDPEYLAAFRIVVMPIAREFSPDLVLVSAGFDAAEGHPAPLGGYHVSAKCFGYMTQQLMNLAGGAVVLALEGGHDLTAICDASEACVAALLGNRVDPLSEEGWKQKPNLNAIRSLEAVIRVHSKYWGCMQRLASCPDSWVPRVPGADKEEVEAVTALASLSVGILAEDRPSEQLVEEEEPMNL
Summary of the method: (§1)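 Full-length recombinant enzyme + MAZ1600/MAZ1675 substrate at [S]=Km, HEPES/KCl/Tween-20/BSA/TCEP buffer pH 7.4; AMC fluorescence via deacetylase + trypsin, kinetic read q5 min; slope in linear range normalized to controls.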

HDAC9 = target: T2, HDAC9 (Homo sapiens, UniProt Q9UKV0); assay: In vitro HDAC enzyme inhibition assay, HDAC9; type: biochemical
T2 construct: Recombinant, full-length HDAC protein (BPS Biosciences) was incubated with fluorophore conjugated substrate; purchased BPS Biosciences
T2 sequence (Q9UKV0 whole entry): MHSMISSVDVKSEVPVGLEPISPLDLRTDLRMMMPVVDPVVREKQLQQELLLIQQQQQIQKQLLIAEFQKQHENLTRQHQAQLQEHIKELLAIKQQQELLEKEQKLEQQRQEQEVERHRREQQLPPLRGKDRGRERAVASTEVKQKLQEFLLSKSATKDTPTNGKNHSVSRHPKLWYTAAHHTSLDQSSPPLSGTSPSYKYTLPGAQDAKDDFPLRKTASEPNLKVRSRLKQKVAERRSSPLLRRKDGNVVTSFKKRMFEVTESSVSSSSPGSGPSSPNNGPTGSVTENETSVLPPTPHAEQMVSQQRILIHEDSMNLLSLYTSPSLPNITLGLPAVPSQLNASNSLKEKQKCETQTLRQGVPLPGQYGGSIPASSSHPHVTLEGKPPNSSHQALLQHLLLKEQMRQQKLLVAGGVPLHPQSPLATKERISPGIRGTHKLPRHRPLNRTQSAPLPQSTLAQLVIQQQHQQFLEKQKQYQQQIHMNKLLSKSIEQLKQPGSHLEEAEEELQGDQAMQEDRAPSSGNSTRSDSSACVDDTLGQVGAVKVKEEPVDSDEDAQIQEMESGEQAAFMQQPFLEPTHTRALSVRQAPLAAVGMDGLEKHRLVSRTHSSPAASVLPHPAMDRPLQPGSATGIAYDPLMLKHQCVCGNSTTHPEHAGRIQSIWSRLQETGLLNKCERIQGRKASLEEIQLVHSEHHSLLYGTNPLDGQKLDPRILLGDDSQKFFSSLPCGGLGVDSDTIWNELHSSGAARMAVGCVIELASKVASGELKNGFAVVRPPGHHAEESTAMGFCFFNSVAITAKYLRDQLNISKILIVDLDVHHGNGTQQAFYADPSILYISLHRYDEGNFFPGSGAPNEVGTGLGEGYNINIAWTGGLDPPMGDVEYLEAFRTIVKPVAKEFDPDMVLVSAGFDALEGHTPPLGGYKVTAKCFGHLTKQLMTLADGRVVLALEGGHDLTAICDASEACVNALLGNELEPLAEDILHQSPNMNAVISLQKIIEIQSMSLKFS
Summary of the method: as §1

acetylated histones = assay: High-content image analysis of induction of acetylated histones in A549 cells; settings: Homo sapiens, A549, 8 h, read-out: EC50 for half-maximal induction of acetylated histones (AcHistone)
HDAC6 = target: T3, HDAC6 (Homo sapiens, UniProt Q9UBN7); assay: In vitro HDAC enzyme inhibition assay, HDAC6; type: biochemical; settings: recombinant full-length HDAC6, substrate MAZ1600 9 μM
T3 construct: Recombinant, full-length HDAC protein (BPS Biosciences) was incubated with fluorophore conjugated substrate; purchased BPS Biosciences
T3 sequence (Q9UBN7 1-1215): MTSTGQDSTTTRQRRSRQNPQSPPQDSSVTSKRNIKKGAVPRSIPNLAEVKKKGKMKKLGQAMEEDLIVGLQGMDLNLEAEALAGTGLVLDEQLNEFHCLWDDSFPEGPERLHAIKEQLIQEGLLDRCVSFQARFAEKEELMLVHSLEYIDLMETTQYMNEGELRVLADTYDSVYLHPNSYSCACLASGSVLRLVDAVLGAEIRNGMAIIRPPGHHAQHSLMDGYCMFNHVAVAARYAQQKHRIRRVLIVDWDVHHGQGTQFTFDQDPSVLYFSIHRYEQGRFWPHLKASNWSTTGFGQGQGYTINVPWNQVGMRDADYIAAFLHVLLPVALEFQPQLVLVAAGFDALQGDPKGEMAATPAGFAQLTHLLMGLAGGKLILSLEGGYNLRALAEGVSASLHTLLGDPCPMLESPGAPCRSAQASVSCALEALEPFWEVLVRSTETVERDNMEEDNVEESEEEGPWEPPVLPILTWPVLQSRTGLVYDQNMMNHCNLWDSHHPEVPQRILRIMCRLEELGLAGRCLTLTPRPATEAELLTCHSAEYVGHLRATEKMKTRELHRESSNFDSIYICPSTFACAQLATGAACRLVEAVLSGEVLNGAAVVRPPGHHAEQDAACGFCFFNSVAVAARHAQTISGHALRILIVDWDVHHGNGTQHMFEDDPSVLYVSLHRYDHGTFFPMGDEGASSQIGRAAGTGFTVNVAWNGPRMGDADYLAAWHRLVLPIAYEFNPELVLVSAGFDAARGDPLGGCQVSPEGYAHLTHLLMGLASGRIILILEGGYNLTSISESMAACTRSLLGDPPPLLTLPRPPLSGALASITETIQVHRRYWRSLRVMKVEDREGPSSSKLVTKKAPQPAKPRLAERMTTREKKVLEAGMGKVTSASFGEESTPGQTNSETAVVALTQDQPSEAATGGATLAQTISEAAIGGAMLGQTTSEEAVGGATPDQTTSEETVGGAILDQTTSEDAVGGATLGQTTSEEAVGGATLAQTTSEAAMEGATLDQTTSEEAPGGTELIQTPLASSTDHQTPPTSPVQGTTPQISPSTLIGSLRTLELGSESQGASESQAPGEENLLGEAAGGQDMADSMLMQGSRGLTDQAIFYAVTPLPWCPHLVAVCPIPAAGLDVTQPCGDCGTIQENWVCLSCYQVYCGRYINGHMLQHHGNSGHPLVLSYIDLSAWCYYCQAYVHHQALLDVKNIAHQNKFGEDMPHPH
Summary of the method: as §1

HDAC5 = target: T4, HDAC5 (Homo sapiens, UniProt Q9UQL6); assay: In vitro HDAC enzyme inhibition assay, HDAC5; type: biochemical
T4 construct: Recombinant, full-length HDAC protein (BPS Biosciences) was incubated with fluorophore conjugated substrate; purchased BPS Biosciences
T4 sequence (Q9UQL6 whole entry): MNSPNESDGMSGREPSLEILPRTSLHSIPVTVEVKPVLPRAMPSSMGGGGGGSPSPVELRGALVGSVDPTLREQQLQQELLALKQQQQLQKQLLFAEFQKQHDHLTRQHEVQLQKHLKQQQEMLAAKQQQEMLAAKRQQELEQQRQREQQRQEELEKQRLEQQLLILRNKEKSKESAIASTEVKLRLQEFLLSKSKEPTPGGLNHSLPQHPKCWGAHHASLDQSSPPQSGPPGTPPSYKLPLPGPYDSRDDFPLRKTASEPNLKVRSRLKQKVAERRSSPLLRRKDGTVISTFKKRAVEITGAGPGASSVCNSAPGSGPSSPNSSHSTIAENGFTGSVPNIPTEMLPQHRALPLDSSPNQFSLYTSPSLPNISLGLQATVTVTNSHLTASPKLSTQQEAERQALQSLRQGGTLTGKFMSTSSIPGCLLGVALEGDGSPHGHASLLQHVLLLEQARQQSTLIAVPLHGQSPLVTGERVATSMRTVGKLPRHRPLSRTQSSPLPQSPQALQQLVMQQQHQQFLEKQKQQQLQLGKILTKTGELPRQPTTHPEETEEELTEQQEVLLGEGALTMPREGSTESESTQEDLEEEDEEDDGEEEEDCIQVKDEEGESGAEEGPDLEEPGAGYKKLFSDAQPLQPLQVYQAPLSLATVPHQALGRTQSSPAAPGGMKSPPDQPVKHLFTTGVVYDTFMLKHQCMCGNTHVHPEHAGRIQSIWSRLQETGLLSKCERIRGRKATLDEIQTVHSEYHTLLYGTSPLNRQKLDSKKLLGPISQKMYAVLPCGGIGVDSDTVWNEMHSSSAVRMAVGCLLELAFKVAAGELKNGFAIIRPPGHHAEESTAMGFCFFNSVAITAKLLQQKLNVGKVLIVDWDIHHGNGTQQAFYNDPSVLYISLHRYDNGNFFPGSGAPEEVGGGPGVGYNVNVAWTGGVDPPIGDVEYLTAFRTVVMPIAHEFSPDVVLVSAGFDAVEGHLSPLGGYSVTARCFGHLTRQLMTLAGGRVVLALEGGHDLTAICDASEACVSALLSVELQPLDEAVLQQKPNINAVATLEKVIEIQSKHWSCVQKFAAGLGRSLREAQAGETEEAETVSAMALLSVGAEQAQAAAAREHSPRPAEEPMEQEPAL
Summary of the method: as §1

- HDAC7/HDAC6 in vitro selectivity (HDAC7; ratio of IC50 for HDAC7 relative to that of HDAC6): 55678
- IC50 (HDAC7; recombinant full-length HDAC7, substrate MAZ1675 22 μM): 159 nM
- HDAC9/HDAC6 in vitro selectivity (HDAC9; ratio of IC50 for HDAC9 relative to that of HDAC6): 319552
- IC50 (HDAC9; recombinant full-length HDAC9, substrate MAZ1675 26 μM): 915 nM
- EC50 (acetylated histones): 229 nM
- IC50 (HDAC6): 0.00286 nM
- HDAC5/HDAC6 in vitro selectivity (HDAC5; ratio of IC50 for HDAC5 relative to that of HDAC6): 229909
- IC50 (HDAC5; recombinant full-length HDAC5, substrate MAZ1675 40 μM): 658 nM
Structure (SMILES): Cc1ccc2c(c1)[nH]c(=O)n2Cc1ccc(C(=O)NO)cc1 [B2, N-hydroxy-4-((5-methyl-2-oxo-2,3-dihydro-1H-benzo[d]imidazol-1-yl)methyl)benzamide]
- selectivity toward HDAC6 compared to HDAC7 (in words) (HDAC7; tested in vitro): exceptionally high selectivity (Inhibitors with in vitro selectivity values for HDAC6 of at least 30,000 are considered to have exceptionally high selectivity toward HDAC6)
- selectivity toward HDAC6 compared to HDAC9 (in words) (HDAC9; tested in vitro): exceptionally high selectivity (Inhibitors with in vitro selectivity values for HDAC6 of at least 30,000 are considered to have exceptionally high selectivity toward HDAC6)
- selectivity toward HDAC6 compared to HDAC5 (in words) (HDAC5; tested in vitro): exceptionally high selectivity (Inhibitors with in vitro selectivity values for HDAC6 of at least 30,000 are considered to have exceptionally high selectivity toward HDAC6)
